According to US20110039721A1, “METHOD FOR PREDICTION ABOUT CARCINOGENICITY OF SUBSTANCE IN RODENT” (Chemicals Evaluation and Research Institute, priority 2007, published 2011):

Legend:
[1] = test system: mRNA expressed from the genes (A) to (D) in rat liver; test: Behavior of genes (mRNA expression level, oligo-DNA microarray) in rat liver after 28-day oral administration; type: in vivo
Outline: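 Groups of four male F344 SPF rats aged 5 weeks are gavaged once a day for 28 days with test chemical in solvent or with solvent alone at equal volume. Total RNA comes from liver taken on day 28. Fold change of 1.5 or 1/1.5 versus control, directionally consistent, defines significance.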

[2] = test system: liver; conditions: in vivo; cited from earlier work
[3] = test system: rodent; conditions: in vivo; cited from earlier work

Nc1ccc(N=Nc2ccccc2)cc1 [TS075, 4-Aminoazobenzene]
+: Behavior of gene caused by administration of chemical substance ([1]; Gene No. 893, Rn.164817, group (C)) | Behavior of gene caused by administration of chemical substance ([1]; Gene No. 1163, Rn.11766, group (C)) | Behavior of gene caused by administration of chemical substance ([1]; Gene No. 1993, Rn.18728, group (C)) | Behavior of gene caused by administration of chemical substance ([1]; Gene No. 2203, Rn.21240, group (B)) | Behavior of gene caused by administration of chemical substance ([1]; Gene No. 2546, Rn.24561, group (C)) | Behavior of gene caused by administration of chemical substance ([1]; Gene No. 3929, Rn.4620, group (C)) | Behavior of gene caused by administration of chemical substance ([1]; Gene No. 4095, Rn.119024, group (C)) | Behavior of gene caused by administration of chemical substance ([1]; Gene No. 4973, Rn.118529, group (C))
C+: Carcinogenicity [3]
Cr+: Liver carcinogenicity [2]
−: Behavior of gene caused by administration of chemical substance ([1]; Gene No. 154, Rn.185941, group (C)) | Behavior of gene caused by administration of chemical substance ([1]; Gene No. 533, Rn.106184, group (C)) | Behavior of gene caused by administration of chemical substance ([1]; Gene No. 725, Rn.108075, group (C)) | Behavior of gene caused by administration of chemical substance ([1]; Gene No. 813, Rn.201760, group (C)) | Behavior of gene caused by administration of chemical substance ([1]; Gene No. 1119, Rn.9757, group (C)) | Behavior of gene caused by administration of chemical substance ([1]; Gene No. 1131, Rn.144946, group (C)) | Behavior of gene caused by administration of chemical substance ([1]; Gene No. 1334, Rn.120914, group (C)) | Behavior of gene caused by administration of chemical substance ([1]; Gene No. 1494, Rn.1430, group (B)) | Behavior of gene caused by administration of chemical substance ([1]; Gene No. 1562, Rn.14744, group (C)) | Behavior of gene caused by administration of chemical substance ([1]; Gene No. 1741, Rn.1647, group (C)) | Behavior of gene caused by administration of chemical substance ([1]; Gene No. 2026, Rn.167075, group (A)) | Behavior of gene caused by administration of chemical substance ([1]; Gene No. 2045, Rn.19329, group (B)) | Behavior of gene caused by administration of chemical substance ([1]; Gene No. 2494, Rn.23969, group (C)) | Behavior of gene caused by administration of chemical substance ([1]; Gene No. 3776, Rn.43232, group (C)) | Behavior of gene caused by administration of chemical substance ([1]; Gene No. 4218, Rn.167075, group (A)) | Behavior of gene caused by administration of chemical substance ([1]; Gene No. 4846, Rn.144554, group (A)) | Behavior of gene caused by administration of chemical substance ([1]; Gene No. 5600, Rn.9836, group (A)) | Behavior of gene caused by administration of chemical substance ([1]; Gene No. 5634, Rn.9862, group (C)) | Behavior of gene caused by administration of chemical substance ([1]; Gene No. 5726, Rn.9939, group (D)) | Behavior of gene caused by administration of chemical substance ([1]; Gene No. 5878, Rn.143213, group (C)) | Behavior of gene caused by administration of chemical substance ([1]; Gene No. 6026, Rn.167685, group (C)) | Behavior of gene caused by administration of chemical substance ([1]; Gene No. 6182, Rn.5834, group (A)) | Behavior of gene caused by administration of chemical substance ([1]; Gene No. 6303, Rn.123063, group (C)) | Behavior of gene caused by administration of chemical substance ([1]; Gene No. 6620, Rn.120914, group (C)) | Behavior of gene caused by administration of chemical substance ([1]; Gene No. 6742, Rn.9779, group (C))
